The conditions of series [1]: cited from earlier work.
For series [2] the following is noted: TURBUHALER, cited from earlier work.
Series [3] is described as follows: Aerodynamic particle size distribution, NEXT GENERATION IMPACTOR, passive blister dry powder inhaler. In kind it is physicochemical. To be noted: Lot A2; for % deviation in FPFd2Q<500: going from 35 L/min to 47 L/min. As for the experimental part:
The aerodynamic particle size distribution (aPSD) of the resulting aerosol dose was assessed using a NEXT GENERATION IMPACTOR™ at flow rates of 35 LPM and 47 LPM, corresponding to inhaler pressure drops of 4 kPa and 6 kPa, respectively. Note for present purposes flow rate and pressure drop are related via the inhaler flow resistance, and are used interchangeably. The mass distribution of each active ingredient on the cascade impactor stages was determined using an HPLC assay.
Total lung deposition as a function of variations in flow rate (O) is dependent not only on the aerodynamic particle size distribution of the aerosol, but also on the variations in inertial impaction which occur with changes in flow rate. In other words, for a given aPSD, the lung dose is expected to decrease as the flow rate increases. In order to achieve flow rate independence in-vivo, it is important to achieve a balance of these two opposing factors. A simple way to account for the dependence of lung dose on both variables, i.e. aerodynamic particle size cutoff diameter, d, and flow rate, Q, is to express the aPSD in terms of a fine particle fraction cut-off which incorporates both variables. Assuming oropharyngeal losses are determined largely by inertial impaction, the cut-off for lung dose may be expressed in terms of the impaction parameter, d^2Q. The selected cut-off d^2Q of 500 μm^2-L/min was chosen to represent a range of inhalers, based on the fact that the best correlate of lung deposition is found for the fraction of particles with an aerodynamic size of less than 3 μm, and a medium resistance inhaler is typically tested at a flow rate of about 60 L/min.

For the next series, the target named is β2-adrenoceptor (Homo sapiens, UniProt P07550). To be noted: cited from earlier work.
β2-adrenoceptor, sequence (P07550 whole entry, species assumed): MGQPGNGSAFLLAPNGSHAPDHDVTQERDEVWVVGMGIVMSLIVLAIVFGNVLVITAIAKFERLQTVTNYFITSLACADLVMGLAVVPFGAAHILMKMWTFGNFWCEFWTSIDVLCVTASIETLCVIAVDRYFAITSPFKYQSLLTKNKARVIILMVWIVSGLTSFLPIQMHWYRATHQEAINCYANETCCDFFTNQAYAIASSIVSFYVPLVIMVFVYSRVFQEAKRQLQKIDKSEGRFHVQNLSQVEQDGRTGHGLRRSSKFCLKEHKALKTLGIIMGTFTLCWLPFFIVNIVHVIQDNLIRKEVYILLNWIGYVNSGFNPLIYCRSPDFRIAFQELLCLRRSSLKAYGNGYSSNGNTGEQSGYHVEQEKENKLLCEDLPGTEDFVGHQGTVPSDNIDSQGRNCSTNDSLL
Setting [4] is: pressure drop 4 kPa, flow rate 35 L/min.
[5] abbreviates: pressure drop 6 kPa, flow rate 47 L/min.

Structures can show the parent of a compound that is named as a salt. Where two headings read alike, the source gives them in different places. Peptide text beside a SMILES is read from it.

Regarding `O=C([O-])CC(O)(CC(=O)[O-])C(=O)[O-].[Na+].[Na+].[Na+]` [sodium citrate], the “Dry Tg” value in series [1] (pH > 7) is recorded as 170 (pH > 7) ° C.

Regarding `CCCC1O[C@@H]2C[C@H]3[C@@H]4CCC5=CC(=O)C=C[C@]5(C)[C@H]4[C@@H](O)C[C@]3(C)[C@]2(C(=O)CO)O1` (some centres unmarked) [budesonide], the total lung deposition is recorded as 15% in series [2] (breathe more slowly (comfortable inhalation manoeuvre)) and 28% in series [2] (breathe quickly (forceful inhalation manoeuvre)).

Consider `CCc1cc2c(cc1CC)CC(NC[C@H](O)c1ccc(O)c3[nH]c(=O)ccc13)C2` [Indacaterol maleate, (R)-5-[2-(5,6-diethyl-indan-2-ylamino)-1-hydroxyethyl]-8-hydroxy-1H-quinolin-2-one], for which, in series [3] (setting [4]), the “FPF<3.3 μm” value is reported as 57 % DD, the MMAD was 2.8 μm and the “d^2Q < 500” value was 65. For the same molecule, in series [3] (setting [5]), the “FPF<3.3 μm” value came to 69 % DD, the MMAD was found to be 2.3 μm and the “d^2Q < 500” value amounted to 68.

`CC(C)C[C@H](NC(=O)[C@H](CC(C)C)NC(=O)[C@@H](N)CC(C)C)C(=O)O` [trileucine] (H-Leu-Leu-Leu-OH): in series [1] (pH dependent), the Dry Tg is 70 to 100 °C.

In the case of `CCc1cc2c(cc1CC)CC(NC[C@H](O)c1ccc(O)c3[nH]c(=O)ccc13)C2` [indacaterol, (R)-5-[2-(5,6-diethyl-indan-2-ylamino)-1-hydroxyethyl]-8-hydroxy-1H-quinolin-2-one], at β2-adrenoceptor, the duration of action entry was “over 24 hours” and the onset of action entry is given as “about 10 minutes”. Further, the “% deviation in FPFd2Q<500” value in series [3] turned out to be 4.6%.

Consider `C[N+]1(C)CCC(OC(=O)C(O)(c2ccccc2)C2CCCC2)C1.[Br-]` (centres unmarked) [Glycopyrrolate, 3-[(cyclopentyl-hydroxyphenyl-acetyl)oxy]-1,1-dimethylpyrrolidinium bromide], for which the “% deviation in FPFd2Q<500” value in series [3] is on record as 8.1%.

The values are drawn from patent US9050267B2 (Novartis AG, priority 2011, dated 2015).
